This is an account of results in patent US6447997B1, “Gene coding for GADD153 as a clinical diagnostic and prognostic in cancer therapy” (Research Development Foundation, priority 1997, dated 2002).

Each structure is given as a SMILES string.

The test system of one experiment is UMSCC10b-Pt/S15. The experiment in a line: Sensitivity to cDDP in vitro, clonogenic assay. It is filed as cell-based, human. To be noted: subline UMSCC10b-Pt/S15. How it is done:
(§1) UMSCC10b cells were selected for cDDP resistance by chronic exposure to cDDP which was supplied by (Bristol-Meyers-Squibb, Princeton, N.Y.). The first three selections were performed at a concentration of 0.5 μM which allowed approximately 10^7 cells to grow to confluence in a 150 cm^2 flask within one week. For every following set of 3 selections, the cDDP concentration was increased by approximately 20% (15,16). The sensitivity of the UMSCC10b cell line and its cDDP-resistant variants to cDDP was determined by clonogenic assay using a 1 h cDDP exposure. A single-cell suspension was plated into 60 mm tissue culture dishes (Corning) at 300 cells per dish in fresh medium. After incubation for 24 h at 37° C., cells had attached to the plates and cDDP was added to the cells and incubated for 1 h following which the cells were washed twice with phosphate-buffered saline and 5 ml of fresh medium was added. Cultures were incubated for an additional 13-15 days following which there were fixed with methanol, stained with Giemsa, and clusters of >50 cells were scored as colonies. cDDP-selected cells were cultured in drug-free media for 2 weeks before cDDP sensitivity was determined by clonogenic assay.

The subject of the next experiment is UMSCC10b-Pt/S6. The experiment in a line: Sensitivity to cDDP in vitro, clonogenic assay. The class given is cell-based, human. To be noted: subline UMSCC10b-Pt/S6. The procedure: as §1

On to `[NH2][Pt]([NH2])([Cl])[Cl]` [cDDP, cisplatin], for which the “cDDP resistance relative to parental cells” value in the experiment on UMSCC10b-Pt/S15 was found to be 6 fold; with UMSCC10b-Pt/S6 it was 3 fold.
